Test results published in ChEMBL document CHEMBL4665909, “Carboxamides as Modulators of Sodium Channels” (ACS Med Chem Lett, 2020).
pIC50: −log10 of the molar value.

Target: Sodium channel protein type 10 subunit alpha (Homo sapiens, UniProt Q9Y5Y9)
Assay: Inhibition of human Nav1.8 expressed in HEK cells applied electrical stimulus 10 Hz for 10 seconds measuring relaxation to the resting state followed by post stimulation by E-VIPR Assay
Format: cell-based

Chain of Sodium channel protein type 10 subunit alpha (Q9Y5Y9 whole entry): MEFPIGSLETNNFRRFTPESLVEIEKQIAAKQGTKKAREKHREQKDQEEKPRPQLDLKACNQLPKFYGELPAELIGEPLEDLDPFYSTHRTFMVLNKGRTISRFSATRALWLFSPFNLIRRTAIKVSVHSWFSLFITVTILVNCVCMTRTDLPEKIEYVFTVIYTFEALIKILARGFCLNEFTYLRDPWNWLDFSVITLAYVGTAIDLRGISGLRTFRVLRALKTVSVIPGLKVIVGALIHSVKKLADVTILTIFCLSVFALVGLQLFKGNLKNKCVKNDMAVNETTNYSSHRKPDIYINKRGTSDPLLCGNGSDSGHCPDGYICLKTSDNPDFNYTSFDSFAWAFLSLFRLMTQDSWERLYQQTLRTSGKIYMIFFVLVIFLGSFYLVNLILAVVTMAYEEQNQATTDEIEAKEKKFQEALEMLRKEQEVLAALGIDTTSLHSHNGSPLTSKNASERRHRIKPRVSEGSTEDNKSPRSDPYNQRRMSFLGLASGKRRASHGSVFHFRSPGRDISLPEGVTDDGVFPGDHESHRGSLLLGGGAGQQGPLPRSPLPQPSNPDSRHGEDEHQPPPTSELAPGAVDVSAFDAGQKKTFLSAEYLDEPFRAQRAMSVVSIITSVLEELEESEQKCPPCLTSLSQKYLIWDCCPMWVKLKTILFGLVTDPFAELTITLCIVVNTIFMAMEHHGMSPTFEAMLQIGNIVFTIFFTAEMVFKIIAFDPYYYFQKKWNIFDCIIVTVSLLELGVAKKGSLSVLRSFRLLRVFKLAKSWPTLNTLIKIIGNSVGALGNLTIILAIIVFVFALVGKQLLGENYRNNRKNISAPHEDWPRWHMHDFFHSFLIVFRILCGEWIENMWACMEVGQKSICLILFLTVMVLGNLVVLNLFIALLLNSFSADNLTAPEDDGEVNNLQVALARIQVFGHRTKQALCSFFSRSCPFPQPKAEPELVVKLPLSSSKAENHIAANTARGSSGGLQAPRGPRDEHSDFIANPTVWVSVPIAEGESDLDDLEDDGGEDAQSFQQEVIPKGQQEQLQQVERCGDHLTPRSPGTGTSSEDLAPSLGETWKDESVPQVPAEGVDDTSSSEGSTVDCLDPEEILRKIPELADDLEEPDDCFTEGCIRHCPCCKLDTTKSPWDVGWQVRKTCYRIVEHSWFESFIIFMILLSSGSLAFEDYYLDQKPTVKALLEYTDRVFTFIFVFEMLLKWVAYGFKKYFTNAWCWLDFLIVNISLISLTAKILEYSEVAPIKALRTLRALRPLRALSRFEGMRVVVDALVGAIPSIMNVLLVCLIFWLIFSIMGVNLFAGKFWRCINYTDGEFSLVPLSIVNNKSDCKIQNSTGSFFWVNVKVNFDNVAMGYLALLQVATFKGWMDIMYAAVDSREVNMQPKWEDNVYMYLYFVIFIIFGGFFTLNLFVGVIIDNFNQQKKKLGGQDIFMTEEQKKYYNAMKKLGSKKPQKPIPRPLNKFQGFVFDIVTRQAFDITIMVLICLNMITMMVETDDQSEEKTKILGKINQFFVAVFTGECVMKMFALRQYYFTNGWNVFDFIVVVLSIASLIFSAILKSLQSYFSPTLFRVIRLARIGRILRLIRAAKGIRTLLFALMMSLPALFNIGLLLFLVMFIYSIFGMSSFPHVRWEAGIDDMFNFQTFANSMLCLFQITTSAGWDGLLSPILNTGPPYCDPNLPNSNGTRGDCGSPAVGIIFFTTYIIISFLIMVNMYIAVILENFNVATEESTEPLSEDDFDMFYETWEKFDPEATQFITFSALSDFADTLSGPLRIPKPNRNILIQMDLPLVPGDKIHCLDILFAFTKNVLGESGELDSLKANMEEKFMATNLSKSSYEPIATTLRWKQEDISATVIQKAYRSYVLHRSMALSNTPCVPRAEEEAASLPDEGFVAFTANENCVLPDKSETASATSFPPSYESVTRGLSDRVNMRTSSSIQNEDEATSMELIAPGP

pIC50	SMILES
8.89	COc1c(Cl)cc(Oc2ccc(OC(F)(F)F)c(F)c2OC)c(C(=O)Nc2ccnc(C(N)=O)c2)c1F
8.85	COc1c(Oc2cc(Cl)c(C)c(F)c2C(=O)Nc2ccnc(C(N)=O)c2)ccc(OC(F)(F)F)c1F
9.10	COc1c(Oc2cc(C(F)(F)F)c(C)c(F)c2C(=O)Nc2ccnc(C(N)=O)c2)ccc(OC(F)(F)F)c1F
8.77	COc1cc(Oc2ccc(OC(F)(F)F)c(F)c2OC)c(C(=O)Nc2ccnc(C(N)=O)c2)c(F)c1Cl
8.40	COc1cc(OC(F)(F)F)ccc1Oc1ccc(C(F)(F)F)c(C)c1C(=O)Nc1ccnc(C(N)=O)c1
8.70	COc1cc(OC(F)(F)F)ccc1Oc1ccc(C(F)(F)F)c(Br)c1C(=O)Nc1ccnc(C(N)=O)c1
8.64	COc1c(Oc2ccc(Cl)c(F)c2C(=O)Nc2ccnc(C(N)=O)c2)ccc(OC(F)(F)F)c1F
8.52	COc1c(Oc2ccc(C(F)(F)F)c(C)c2C(=O)Nc2ccnc(C(N)=O)c2)ccc(OC(F)(F)F)c1F
8.74	COc1cc(OC(F)(F)F)ccc1Oc1cc(OC)c(C(F)(F)F)c(F)c1C(=O)Nc1ccnc(C(N)=O)c1
8.70	COc1cc(OC(F)(F)F)ccc1Oc1ccc(C(F)(F)F)c(Cl)c1C(=O)Nc1ccnc(C(N)=O)c1
8.80	COc1c(Oc2cc(C(F)(F)F)c(OC)c(F)c2C(=O)Nc2ccnc(C(N)=O)c2)ccc(OC(F)(F)F)c1F
9.40	COc1cc(Oc2ccc(OC(F)(F)F)c(F)c2OC)c(C(=O)Nc2ccnc(C(N)=O)c2)c(F)c1C(F)(F)F
